Test results taken from US12616689B2, “Regimens of tafenoquine for prevention of malaria in malaria-naive subjects” (60 Degrees Pharmaceuticals, Inc., priority 2014, dated 2026).

Columns and labels:
[1] = in vivo; cited from earlier work
[2] = tested on: blood stages of P. falciparum; conditions: cited from earlier work
[3] = tested on: chloroquine sensitive and resistant P. vivax; conditions: Aotus monkeys; cited from earlier work
[4] = cited from earlier work
malaria = conditions: cited from earlier work
P. berghei = conditions: cited from earlier work
[5] = Population PK analysis (NONMEM one-compartment model) of plasma tafenoquine concentrations pooled from ten Phase I/II/III clinical studies, with bootstrap evaluation; format: in vivo, human; set-up: key to ωCL^2, variance of inter-individual random effect on CL, final NONMEM estimate / ωV^2, variance of inter-individual random effect on V, final NONMEM estimate / ωKa^2, variance of inter-individual random effect on Ka, final NONMEM estimate / ωCL^2, Bootstrap Estimate / ωV^2, Bootstrap Estimate / ωKa^2, Bootstrap Estimate: variance of ηi, where Pi = P·exp(ηi)
Description: Pharmacokinetic (PK) data from several studies (Phase I/II/III) was modeled to establish a consolidated model of tafenoquine and to determine relevant covariates. More specifically, analysis was performed using data obtained from ten Phase I/II/III clinical studies of tafenoquine (U.S. Army Study Numbers: 1, 2, 3, 4, 5, 14, 15, 33, 44 and 58). Table 2 summarizes the key features of each of the studies included in the pooled dataset such as the study type and design, dose and dosing regimen, population, and sample collection schemes. A total of 866 subjects were included in the population analysis. Ninety-three percent of the subjects were male.
The tafenoquine concentrations of plasma samples across the ten studies were analyzed using a validated high-performance liquid chromatography-mass spectrometry method (HPLC-MS) or HPLC with fluorescence detection as previously described (see, Kocisko D A, Walsh D S, Eamsila C, Edstein M D. Measurement of tafenoquine (WR 238605) in human plasma, and venous and capillary blood by high-pressure liquid chromatography. Ther Drug Monit. 2000; 22:184-189; Charles B G, Miller A K, Nasveld P E, Reid M G, Harris I E, Edstein M D. Population pharmacokinetics of tafenoquine during malaria prophylaxis in healthy subjects. Antimicrob Agents Chemother. 2007; 51:2709-2715.
Population PK analyses were carried out using NONMEM version 7.1.2, PDx-Pop version 4.2 (Icon Development Solutions, Hanover, MD) and Intel Visual Fortran Compiler version 12 on a Microsoft Windows XP platform. Plasma tafenoquine concentrations, demographic information and clinical laboratory results from ten studies were used to build a pooled NONMEM input data file for the current population PK analysis. The data were prepared for analysis using SAS software version 9.1.3 (SAS Institute Inc., Cary, NC). Actual dosing and actual blood sampling times, when available, were used for the analysis. Plasma tafenoquine concentrations that were below or equal to the limit of quantification were excluded from the analysis.
Based on the PK profile of tafenoquine from previous modeling efforts (Shanks G D, Oloo A J, Aleman G M, et al. A new primaquine analogue, tafenoquine (WR 238605), for prophylaxis against Plasmodium falciparum malaria. Clin Infect Dis. 2001; 33:1968-1974; Obaldia N 3rd, Rossan R N, Cooper R D, et al. WR 238605, chloroquine, and their combinations as blood schizonticides against a chloroquine-resistant strain of Plasmodium vivax in Aotus monkeys. Am J Trop Med Hyg. 1997; 56:508-10), a one-compartment PK model with first-order absorption and elimination processes was selected to describe best the pharmacokinetics of tafenoquine. As part of the modeling process, a two-compartment PK model with first-order absorption and elimination process was also explored and discarded. The one-compartment PK model was specified in the NONMEM control file and was parameterized in terms of apparent clearance (CL/F), apparent volume of distribution (V/F) and absorption rate constant (Ka) using the PREDPP ADVAN2 with TRANS2 subroutine in NONMEM. First-order conditional estimation (FOCE) with interaction between variance of inter-individual variability and the variance of residual error was used as the estimation method. Inter-individual variability was best described by an exponential error model, as shown below: Pi=Pexp(ηi) • where: • Pi is the estimated parameter for the i^th individual. • P is the population value for the parameter. • ηi are inter-individual random effects for the i^th individual for parameter P and were assumed to be independent and symmetrically distributed with a zero mean and a variance ω^2.
Different structural models (additive, proportional, exponential and combined additive and proportional) were investigated for residual unexplained variability (RUV). RUV was best described by a proportional error model, as shown below: […]

[6] = tested on: Plasmodium falciparum malaria; conditions: regimens of 50, 100, 200 and 400 mg; cited from earlier work
[7] = final PK model, coefficient of variation

COc1cc(NC(C)CCCN)c2ncccc2c1 (stereo not drawn) [primaquine]
Half-life [1]: hours

COc1cc(C)c2c(Oc3cccc(C(F)(F)F)c3)c(OC)cc(NC(C)CCCN)c2n1 (stereo not drawn) [tafenoquine, -[2,6-Dimethoxy-4-methyl-5-[3-(trifluoromethyl)phenoxy]quinolin-8-yl]pentane-1,4-diamine]
Activity against blood stages of P. falciparum in vitro [2]: active
Cure of chloroquine sensitive and resistant P. vivax infections [3]: cured
Incidence of gastrointestinal adverse events relative to 400 mg once daily or BID for three days (total dose 1200 mg) ([4]; 200 mg once daily for three days (total dose 600 mg)): approximately half
Threshold dose considered safe in G6PD-deficient individuals ([4]; G6PD-deficient individuals): 300 mg
Safety and tolerability of a loading dose of 400 mg once daily for three days ([4]; G6PD-normal individuals): safe in G6PD-normal individuals in several clinical studies but exhibits gastrointestinal intolerability
Tolerability of a 400 mg dose ([4]; human, in vivo): less well tolerated
Protective efficacy (malaria; 200 mg daily for three days, then 200 mg weekly, 95% CI 93%-100%): 100%
Malaria breakthroughs (malaria; reference regimen, non-immune, primarily Caucasian Australian soldiers): no malaria breakthroughs were observed
Activity against P. berghei in mice in vivo (P. berghei): active
COVCL,V, Bootstrap Estimate ([5]; 1000 bootstrap samples): 0.0250
θCL, Bootstrap Estimate ([5]; 1000 bootstrap samples): 4.15
θCL-AGE, Bootstrap Estimate ([5]; 1000 bootstrap samples): −0.200
θCL-WT, Bootstrap Estimate ([5]; 1000 bootstrap samples): 0.554
θKA, Bootstrap Estimate ([5]; 1000 bootstrap samples): 0.351
θV, Bootstrap Estimate ([5]; 1000 bootstrap samples): 2482
θV-FOOD, Bootstrap Estimate ([5]; 1000 bootstrap samples): 0.810
θV-WT, Bootstrap Estimate ([5]; 1000 bootstrap samples): 0.774
σ^2, Bootstrap Estimate ([5]; 1000 bootstrap samples): 0.0486
ωCL^2, Bootstrap Estimate ([5]; 1000 bootstrap samples): 0.0536
ωKa^2, Bootstrap Estimate ([5]; 1000 bootstrap samples): 0.283
ωV^2, Bootstrap Estimate ([5]; 1000 bootstrap samples): 0.0521
Inter-individual variability associated with CL/F before inclusion of covariates WT and age ([5]; base model, without covariates): 26.5%
Inter-individual variability of V/F before inclusion of covariates WT and meal condition ([5]; base model, without covariates): 29.6%
Vd/F ([5]; both sexes, human, plasma, oral, final PK model, WT 75 kg, fasted, read-out: θV, population apparent volume of distribution (V/F), final NONMEM estimate): 2470 L
COVCL,V, covariance, final NONMEM estimate ([5]; final PK model): 0.0289
θV-WT, exponent of weight effect on V/F, final NONMEM estimate ([5]; final PK model): 0.781
σ^2, variance of the proportional residual random effect, final NONMEM estimate ([5]; final PK model): 0.0488
ωCL^2, variance of inter-individual random effect on CL, final NONMEM estimate ([5]; final PK model): 0.0555
ωKa^2, variance of inter-individual random effect on Ka, final NONMEM estimate ([5]; final PK model): 0.293
ωV^2, variance of inter-individual random effect on V, final NONMEM estimate ([5]; final PK model): 0.0583
θV-FOOD, food effect on V/F, final NONMEM estimate ([5]; final PK model, FOOD = 0 fasted, 1 fed): 0.822
Inter-individual variability of CL/F [5, 7]: 23.6%
Inter-individual variability of Ka [5, 7]: 54.1%
Inter-individual variability of V/F [5, 7]: 24.1%
Ka, first-order absorption rate constant, final NONMEM estimate ([5]; oral, final PK model): 0.359 h⁻¹
θCL, population apparent clearance (CL/F), final NONMEM estimate ([5]; oral, final PK model, WT 75 kg, age 25 y): 4.17 L/h
Reduction in microscopically confirmed parasitemia [6]: statistically significant reductions
Half-life [1]: weeks
